Cytotoxicity data for 102 compounds are collected here from ChEMBL document CHEMBL3507680, “University of Dundee, Gates Library screen for HepG2 cell viability”.

This data set is described as follows: Human HepG2 cell viability assay in 384 well format. The class given is toxicity, cell-based. Also noted: dose 125 nL, time 70.5 hour; concentration not given beside the values. The note with it: HepG2 cells, read-out: Inhibition.
Turning to `O=C(Nc1ccc(-n2ccc(C(=O)O)n2)cc1)c1ccccc1`, the cytotoxicity at 70.5 h is -1.13%. In the case of `CC(=O)NCC(=O)Nc1cc(C)n(-c2ccc(Cl)cc2Cl)n1`, the cytotoxicity at 70.5 h was -0.82%. As to `O=C(O)c1ccn(-c2ccccc2NC(=O)c2ccccc2Cl)n1`, the cytotoxicity at 70.5 h is -3.53%. Turning to `CC1CCN(CCNC(=O)c2sccc2C2CC2)CC1`, the cytotoxicity at 70.5 h was -5.27%. With `Cc1ccc(OCCN(C)C2CCOC2=O)cc1` (configuration not stated) the figure was -5.65%. With `OCC1(NCc2cccc(-n3cccn3)c2)CCOCC1` the figure was -1.42%. Turning to `COCCN(CCOC)C(=O)c1cnn(C)c1C`, the cytotoxicity at 70.5 h is -10.4%. With `COCCN(Cc1ccccc1)C(=O)c1cnn(C)c1C` the figure was -8.55%. With `O=C(O)c1ccn(-c2cccc(NC(=O)c3ccccc3Cl)c2)n1` the figure was -6.97%; with `CCN(CC)C(CNC(=O)c1cccnc1-n1cncn1)c1ccsc1` (configuration not stated), -7.63%. In the case of `COCCOCC1CCN(C(=O)c2ccc3[nH]cnc3c2)C1` (configuration not stated), the cytotoxicity at 70.5 h turned out to be 2.45%.

As to `Cc1ccccc1NC(=O)CCNC(=O)c1ccoc1`, the cytotoxicity at 70.5 h was determined as 2.88%. On to `CN(C)c1ncccc1CNC(=O)CCNc1ncccn1`, for which the cytotoxicity at 70.5 h was -9.01%. For `CCC(CNS(=O)(=O)c1cccc(C(=O)OC)c1)N1CCCC1` (configuration not stated), the cytotoxicity at 70.5 h is -10.7%. Regarding `CN(Cc1cnn(C)c1)C(=O)Nc1cccnc1-n1cccn1`, the cytotoxicity at 70.5 h worked out at 14.6%. In the case of `Cn1cc(S(=O)(=O)N(Cc2ccc(F)cc2F)C2CC2)cc1C(N)=O`, the cytotoxicity at 70.5 h was -7.08%.

Consider `CCCN(CC(F)(F)F)S(=O)(=O)c1cc(C(N)=O)n(C)c1`, for which the cytotoxicity at 70.5 h was -8.17%. For the compound `COc1ncccc1CNCc1cnc(N2CCOCC2)nc1`, the cytotoxicity at 70.5 h was -9.23%. Turning to `COC(=O)C1CCN(C(=O)Cn2ccc(-c3ccsc3)n2)CC1`, the cytotoxicity at 70.5 h was -3.32%.

As for `Cn1cc(NC(=O)N2CCCC2c2cccnc2)ccc1=O` (configuration not stated), the cytotoxicity at 70.5 h was -3.14%. For the compound `COC(=O)C1CCN(C(=O)Cn2nc(C)nc2-c2ccccc2)CC1`, the cytotoxicity at 70.5 h was -2.98%. With `COC(=O)C1(NCC(=O)Nc2cc(C)ccc2OC)CCCCC1` the figure was 2.15%; with `Cc1noc(OCC(=O)N2CCCCC2C)n1` (configuration not stated), -3.19%; with `Cc1cnn(CCNCC(=O)N2CCN(c3ccccc3)CC2)c1`, 21.4%.

Turning to `NC(=O)c1cn[nH]c1NC(=O)c1ccc2c(c1)OCO2`, the cytotoxicity at 70.5 h was 1.1%. With `CCOCCC(=O)Nc1cccc(Cl)c1C(N)=O` the figure was -0.685%. For the compound `Cn1cc(CC(=O)N2CCCC(c3cc(C(F)(F)F)[nH]n3)C2)cn1` (configuration not stated), the cytotoxicity at 70.5 h is 15.9%. Turning to `Cn1cnc(S(=O)(=O)N2CCCCc3ccccc32)c1`, the cytotoxicity at 70.5 h worked out at 1.57%. Regarding `CCc1ccc(CC)c(NCc2cnc(N3CCOCC3)nc2)c1`, the cytotoxicity at 70.5 h is -2.91%.

With `Cc1cc(C)n(C2CN(Cc3nc4cc(Cl)ccc4n3C)C2)n1`, the cytotoxicity at 70.5 h came out at 4.28%. In the case of `CCc1cnc(C(C)NC(=O)N2CCCN(CC(F)F)CC2)s1` (configuration not stated), the cytotoxicity at 70.5 h was -4.42%. On to `CC(C)(NCCCOc1ccc(C#N)cc1)c1nccs1`, for which the cytotoxicity at 70.5 h is -1.99%.

For the compound `CN(CCc1ccccn1)CCc1nccs1`, the cytotoxicity at 70.5 h is -8.22%. For the compound `Cc1ccc(C(C)NC(=O)N2CCCN(CC(F)F)CC2)s1` (configuration not stated), the cytotoxicity at 70.5 h is -2.75%. Regarding `CCC(C)C(=O)N(CC(=O)OC)c1cccc(C)n1` (configuration not stated), the cytotoxicity at 70.5 h turned out to be 2.47%. Regarding `CC(CNC(=O)NCc1ccoc1)N1CCc2sccc2C1` (configuration not stated), the cytotoxicity at 70.5 h came to 6.45%.

In the case of `CC(Cn1cccn1)NC(=O)CCc1nc(C(C)(C)C)no1` (configuration not stated), the cytotoxicity at 70.5 h is -2.44%. As to `Cc1nn(C)c2ncc(NC(=O)N3CCCCCC3)cc12`, the cytotoxicity at 70.5 h is -4.95%. Take `Cc1noc(C)c1CN(C)C(=O)C1CCCc2ccccc21` (configuration not stated): the cytotoxicity at 70.5 h was -0.492%. For `CC(C)c1nn(C)c(N(C)C)c1CNC1CCOc2ccccc21` (configuration not stated), the cytotoxicity at 70.5 h was 7.29%.

For the compound `O=C(CCn1cnc2cc(F)c(F)cc21)N1CCN(C2CC2)CC1`, the cytotoxicity at 70.5 h is -5.93%.

On to `Cn1c(CN2CCCC(N3CCNC3=O)C2)cc(=O)n(C)c1=O` (configuration not stated), for which the cytotoxicity at 70.5 h was 26.4%. `Cn1c(CN2CCCC(N3CCCCCC3)C2)cc(=O)n(C)c1=O` (configuration not stated): the cytotoxicity at 70.5 h was -4.65%. On to `COc1ccc(OC)c(CN2CCN(Cc3cscn3)CC2)c1`, for which the cytotoxicity at 70.5 h is -5.74%. With `Cc1cnn(CC(C)Nc2cnc3ccccc3n2)c1` (configuration not stated) the figure was 4.57%.

As for `CCC(=O)NCC(=O)NC(C)c1ccc(OCCC(C)C)cc1` (configuration not stated), the cytotoxicity at 70.5 h was -2.78%. On to `CC(C)OCCC(=O)NCC(O)c1c(F)cccc1F` (configuration not stated), for which the cytotoxicity at 70.5 h is -6.84%. In the case of `Cc1ccc(S(=O)(=O)N2CCOCC2C#N)c(F)c1` (configuration not stated), the cytotoxicity at 70.5 h stood at 2.28%. With `CN1CC(NC(=O)Nc2cnn(-c3ccccc3Cl)c2)CCC1=O` (configuration not stated) the figure was -3.58%; with `O=C(COc1ccc2c(c1)OCC2O)NCc1ccco1` (configuration not stated), -0.449%; with `COc1ccccc1CNC(=O)COc1ccc2c(c1)OCC2O` (configuration not stated), -5.21%. Consider `COC(=O)CN(C(=O)c1cccc(F)c1Cl)c1cccc(C)n1`, for which the cytotoxicity at 70.5 h is 1.83%. With `COC(=O)CN(C(=O)c1cc(C)c(F)cc1F)c1cccc(C)n1` the figure was -5.14%. With `CCC(c1ccccc1)N1CCN(CCO)CC1` (configuration not stated) the figure was -6.76%; with `Cc1ccc(CN(C)C(=O)CCn2c(=O)n(C)c3ccccc32)o1`, -6.04%; with `COC(=O)CN(C(=O)C(C)c1c(F)cccc1F)c1cccc(C)n1` (configuration not stated), -4.95%. For the compound `CCCn1c(=O)n(CCC(=O)N(C)Cc2ccc(C)o2)c2ccccc21`, the cytotoxicity at 70.5 h was -4.98%. Take `CC(C)c1nn(C)c(N(C)C)c1CNC1CCCOc2ccccc21` (configuration not stated): the cytotoxicity at 70.5 h is 31.4%.

As for `CCN(CC(C)C#N)C(=O)CNc1cc(Cl)ccc1C(N)=O` (configuration not stated), the cytotoxicity at 70.5 h was 3.41%. With `O=C(NCC1CC1)c1ccc(NC(=O)c2ccco2)cc1` the figure was -5.31%; with `COc1ccccc1CCNS(=O)(=O)N1CCOCC1`, -11.8%; with `O=C(c1cc2c(s1)CCC2)N1CCN(c2cnccn2)CC1`, -14.9%. In the case of `CC1CN(C(=O)Nc2cc(C(F)(F)F)c[nH]c2=O)CC(C)(C)O1` (configuration not stated), the cytotoxicity at 70.5 h is -8.86%.

Consider `COC(=O)c1ccc(NC(C)c2ccc3c(c2)CC(=O)N3)nn1` (configuration not stated), for which the cytotoxicity at 70.5 h was -10.3%. Consider `CCc1ccc(S(=O)(=O)N2CCCn3ncnc32)s1`, for which the cytotoxicity at 70.5 h is -3.85%. With `O=S(=O)(c1ccc(Cl)s1)N1CCCn2ncnc21` the figure was -1.11%. Take `CCS(=O)(=O)CCSc1ccc(Br)cc1`: the cytotoxicity at 70.5 h was -6.15%. As to `CCc1nc(C2CCCN(c3nccc(N4CCCC4)n3)C2)no1` (configuration not stated), the cytotoxicity at 70.5 h was -0.206%. Regarding `CN(C)C(=O)c1cccc(CCNS(=O)(=O)c2ccccc2)c1`, the cytotoxicity at 70.5 h is -1.77%. With `CCOc1ccc(Cl)cc1CCNC(=O)N1CCCC(CO)C1` (configuration not stated) the figure was -7.21%; with `CCn1nc(C)cc1C(=O)OCCNC(=O)c1ccccc1`, -0.786%; with `COc1c(CNCc2ccccc2-n2ccnc2)c(C)nn1C`, 8.51%.

For the compound `CCOc1cc(Cl)ccc1CNC(=O)N1CCCC(CO)C1` (configuration not stated), the cytotoxicity at 70.5 h was -9.17%. With `COc1c(CNCc2ccccc2Cn2cccn2)c(C)nn1C` the figure was -5.48%; with `COCCn1cc(C(=O)N2CCCC2c2cccs2)c2ccccc21` (configuration not stated), 7.25%.

With `Cc1cc(CC(=O)NCC(O)COc2ccc(F)c(F)c2)n[nH]1` (configuration not stated), the cytotoxicity at 70.5 h stood at 17.8%. `Cc1nnc(C(C)Nc2ccc(OCCc3ccccc3)nc2)o1` (configuration not stated): the cytotoxicity at 70.5 h worked out at 0.291%. `CN(C)c1ccc(C(=O)N2CCCC2c2ccc(Cl)cc2)cc1` (configuration not stated): the cytotoxicity at 70.5 h is -4.22%. Regarding `CC(C)c1noc(CCC(=O)N2CCN(C)CC2c2ccccc2)n1` (configuration not stated), the cytotoxicity at 70.5 h is -9.08%. With `CCC(C)(CNC(=O)Nc1nccs1)N1CCOCC1` (configuration not stated) the figure was -8.6%. In the case of `Cc1noc(CCCC(=O)N2CCN(C)CC2c2ccccc2)n1` (configuration not stated), the cytotoxicity at 70.5 h came out at 29.2%. Consider `CC(C)c1noc(CCCC(=O)N2CCN(C)CC2c2ccccc2)n1` (configuration not stated), for which the cytotoxicity at 70.5 h was -8.67%. With `CC(NC(=O)N1CCc2ccccc21)c1nncn1C` (configuration not stated) the figure was -12.2%; with `CC(=O)N(C)CC(=O)NC1(c2ccc(Cl)c(Cl)c2)CC1`, -10%. For the compound `N#Cc1ccc(CN2CCCN(C(=O)CCn3cncn3)CC2)cc1`, the cytotoxicity at 70.5 h is -10.9%.

Turning to `COc1cc2c(cc1OC)CN(C(=O)NC(C)c1nncn1C)CC2` (configuration not stated), the cytotoxicity at 70.5 h was 26.1%. With `O=C(c1ccc(-n2ccnc2)nc1)N1CCN2CCCCC2C1` (configuration not stated) the figure was -10.4%; with `Cc1cc(C)cc(N(C)S(=O)(=O)c2cc3c(c(C(=O)O)c2)OCCO3)c1`, -12.8%; with `CN(C)c1ccc(C(=O)N2CCCC2c2cnn(C)c2)nn1` (configuration not stated), -11.7%. With `CN(c1ccccc1)S(=O)(=O)c1cc2c(c(C(=O)O)c1)OCCO2` the figure was -9.42%; with `Cc1ccccc1CS(=O)(=O)c1nnc(N2CCOCC2)s1`, 8.66%; with `CNC(=O)c1cccnc1N1CCN(C/C=C/c2ccccc2)CC1`, 6.62%. With `COc1cc(C(C)NCc2c[nH]nc2C)ccc1OCCO` (configuration not stated), the cytotoxicity at 70.5 h was determined as 7.95%. Consider `CC(=O)NCCCSC1CCN(c2ccccc2Cl)C1=O` (configuration not stated), for which the cytotoxicity at 70.5 h was -10.2%. As to `Cn1cc(C(=O)CC2CCCN2C(=O)c2ccc(Cl)o2)cn1` (configuration not stated), the cytotoxicity at 70.5 h came to 2.73%.

Regarding `Cn1cc(C(=O)CC2CCCN2C(=O)c2ccc(Cl)cn2)cn1` (configuration not stated), the cytotoxicity at 70.5 h was -8.95%. Turning to `CCc1nc(C2CCCN(C(=O)C3=NN(C(C)C)C(=O)CC3)C2)no1` (configuration not stated), the cytotoxicity at 70.5 h is -13.3%.

Take `CCN1N=C(C(=O)N2CCCC(c3noc(C)n3)C2)CCC1=O` (configuration not stated): the cytotoxicity at 70.5 h is 22.2%.

In the case of `COc1cccc(-c2n[nH]cc2CNC2CCN(C(C)C)CC2)c1`, the cytotoxicity at 70.5 h is -0.27%. As for `COc1cccc(-c2n[nH]cc2CNC2CCC(O)CC2)c1` (configuration not stated), the cytotoxicity at 70.5 h is -15.9%. Take `CC(C)c1nn(C)c(N(C)C)c1CNC1CCOc2c(F)cccc21` (configuration not stated): the cytotoxicity at 70.5 h is -2%.

As for `COc1ccc(C(C)NCc2c[nH]nc2C)cc1OC` (configuration not stated), the cytotoxicity at 70.5 h is -8.7%.
